From PMC11351550, “Synthesis, Cytotoxicity and Antioxidant Activity Evaluation of Some Thiazolyl–Catechol Compounds” (Antioxidants, 2024)
Where two headings read alike, the source gives them in different places.

Experiments:
[1] = DPPH radical-scavenging assay; format: biochemical; conditions: 30 min in the dark, 517 nm; read-out: IC50 against DPPH•
Description: (§1) The stock solutions of the reference antioxidants (ascorbic acid, Trolox, EDTA-Na2) and compounds 3a–j were prepared by dissolving the solid powders in DMSO, obtaining 2 mM stock solutions. Following this, an additional set of solutions (0.2 mM) for each compound was obtained by dilution with DMSO. Absorption spectra of the tested compounds covering the range from 400 nm to 800 nm were recorded, indicating no absorption peaks near the wavelengths employed in the experiments. All measurements in the presented assays were made against blank samples. To quantify the activity of the compounds 3a–j, for the antiradical assays (DPPH and ABTS) and ferrous ion chelation, IC50 was calculated using Equation (1), while for the electron transfer assays (TAC, RP, FRAP and CUPRAC), the reference number of mole equivalent activity for each compound was calculated using Equation (2). (1) radical scavenging (%)=control absorbance−sample absorbance/control absorbance×100 (2) equivalents of control=sample absorbance/control absorbance
The DPPH˙ (2,2-diphenyl-1-picrylhydrazyl) radical-scavenging assay, initially reported by Brand-Williams et al., relies on transferring a hydrogen atom from the antioxidant substrate being analyzed to the stable violet radical of DPPH˙. This action converts DPPH˙ into a nonradical stable yellow compound. The reduction in absorbance of the DPPH˙ at λ = 517 nm corresponds to the quantity of neutralized reagent. To perform the DPPH assay, we took 50, 75, 100, 125, and 150 µL of each sample from their 0.2 mM stock solutions, then we adjusted the volumes with DMSO to ensure all samples reached a uniform final volume. These solutions were mixed with 1 mL of DPPH reagent and incubated in the dark for 30 min, as presented in literature reports.

[2] = Total Antioxidant Capacity (TAC) assay; format: biochemical; conditions: 95 °C, 1.5 h, 695 nm
Description: as §1
The Total Antioxidant Capacity (TAC) assay was conducted following the methodology outlined in our previous publication, which was based on initial reports from the literature. A volume of 10 mL of the reagent (0.6 M H2SO4, 28 mM Na3PO4 and 4 mM (NH4)6Mo7O24) and 1000 µL of the compound and standard solutions dispensed from the 2 mM stock solutions were mixed in sealed glass test tubes and incubated in a water bath at 95 °C for 1.5 h. After cooling the test tubes to room temperature, 1000 µL of each solution was diluted with 1000 µL of water. The absorbance of the solutions was then measured at λ = 695 nm.

[3] = test system: normal human foreskin fibroblasts (BJ); assay: Alamar Blue cytotoxicity assay, BJ cells; format: cell-based; conditions: for IC50: 48 h exposure, Alamar Blue
Description: (§2) BJ cells were maintained in Dulbecco’s modified Eagle’s medium (DMEM) with low glucose (1 g/L), while the A549 cells were seeded in DMEM with high glucose (5 g/L). All media were supplemented with 10% fetal bovine serum (FBS) and 1% Penicillin/Streptomycin. […] Cellular media were refreshed every other day. Cells were either subcultured or used in experiments once they reached a confluency of 80–90%.
(§3) The cytotoxicity of the synthesized compounds was evaluated by Alamar Blue (AB) assays performed on both cell lines, A549 and BJ, after a 48 h exposure, as previously reported.
(§4) Briefly, approximately 7000 A549 cells and 4000 normal BJ cells were seeded in 100 µL cellular media in 96-well plates to achieve a confluency of 70–80% at the end of the experiment and left to attach overnight before exposure. […] Post-exposure, the media were removed, and the AB assay was performed, with cells being incubated with a 200 µM solution of resazurin for 4 h. The obtained fluorescence was measured at λexcitation = 530/25; λemission = 590/35.
(§5) The experiments included three biological replicates, each one including three technical replicates. The negative control (NC) consisted of cells exposed to a cell culture medium containing 0.2% DMSO and was used for data normalization (100%).

[4] = CUPRAC (CUPric-Reducing Antioxidant Capacity) assay; format: biochemical; conditions: 30 min, 450 nm
Description: as §1
The electron-donating capacity of compounds was assessed using the CUPRAC (CUPric-Reducing Antioxidant Capacity) method. The protocol for this assay is a modification of the reports of Alam et al., Özyürek et al., and Apak et al.. Volumes of 250 µL of CuCl2 10 mM, 1 mL of ammonium acetate buffer 1 M, and 250 µL of 7.5 mM neocuproine in ethanol were mixed with 125 µL of samples and reference compound solutions (0.2 mM). The mixtures were shaken for 30 min in the dark; after that, their absorbance was determined spectrophotometrically at λ = 450 nm.

[5] = Ferrous ion chelation assay (ferrozine); format: biochemical; set-up: key: - represents negligible activity
Description: as §1
To evaluate the ability of compounds to chelate ferrous ions, an assay was performed using an adaptation of Dinis et al.’s initial report. The solutions of the tested compounds (2 mM) were mixed well with 500 µL of FeSO4 (0.125 mM), and 500 µL of ferrozine 0.315 mM. After 10 min, the absorbance of the samples was determined spectrophotometrically at λ = 562 nm. EDTA-Na2 was used as a positive control, due to its exceptional ion chelation properties.

[6] = Ferric-Reducing Antioxidant Potential (FRAP) assay; format: biochemical; conditions: pH 3.6, 593 nm
Description: as §1
The Ferric-Reducing Antioxidant Potential (FRAP) assay relies on the transfer of an electron from the antioxidant being assessed to Fe^3+, resulting in its conversion to Fe^2+. The resulting Fe^2+ ions are then chelated by 2,4,6-tripyridyl-s-triazine, giving a blue-colored complex, with an absorption maximum at λ = 593 nm. A 500 µL amount of the solutions (0.2 mM) of compounds and reference compounds was mixed with 600 µL FRAP reagent and 1200 µL acetate buffer (0.3 M, pH = 3.6), according to previous reports. The resulting solutions were mixed well in the dark, and their absorbance was measured spectrophotometrically.

[7] = Reducing power (RP) assay; format: biochemical; conditions: 50 °C, 20 min, pH 6.6
Description: as §1
In the reducing power (RP) assay, the tested compounds performed the reduction of ferric ions from potassium ferricyanide, forming ferrocyanide, which gives a blue complex. The protocol followed is an adaptation of previously reported methodologies. In glass test tubes, 1000 µL of solutions containing compounds and standards measured from the 0.2 mM stock solutions were mixed with 400 µL of phosphate buffer (0.2 M, pH = 6.6) and 400 µL of K3[Fe(CN)6] solution (1% w/v). The tubes were sealed and incubated for 20 min in a water bath at 50 °C. After cooling to room temperature, 500 µL of trichloroacetic acid (10% w/w) was added to all test tubes The resulting mixtures were left for 0.5 h at room temperature. Subsequently, 250 µL of the resulting solutions were mixed with 140 µL of FeCl3 solution (0.1% w/v) and 1000 µL of distilled water, and the absorbance of the resulting solutions was determined at λ = 695 nm.

[8] = ABTS radical cation decolorization assay; format: biochemical; conditions: 10 min, pH 7.4, 734 nm; read-out: IC50 against ABTS•+
Description: as §1
The decolorization assay of the green ABTS^•+ (2,2′-azinobis-(3-ethylbenzothiazoline-6-sulfonic acid) to ABTS, based on the report of Re et al., was conducted following our group’s published report. The chemical stability of the ABTS^•+ reagent prior to use was checked at λ = 734 nm over one hour, ensuring a consistent absorption (approximately equal to 0.7). The reagent was prepared in potassium phosphate buffer (0.1 M, pH = 7.4) and activated overnight using MnO2 [17]. In all cuvettes, we added 100 μL of the tested compound solutions (0.2 mM) in increasing concentrations up to 200 µL and 2000 µL of the ABTS^•+ reagent. The resulting mixtures were thoroughly shaken for 10 min at room temperature, in the absence of light. The optical absorbance of the resulting mixtures was then measured by spectrophotometry at λ = 734 nm.

[9] = test system: human pulmonary malignant cells (A549); assay: Alamar Blue cytotoxicity assay, A549 cells; format: cell-based; conditions: for IC50: 48 h exposure, Alamar Blue, read-out: IC50 (±SD) A549; for Selectivity Index: ratio between the calculated IC50 on BJ and A549 cells, 48 h
Description: as §2, §3, §4, §5

Row | Compound | IC50 [1] [µM] | TAC Eq Ascorbic Acid [2] [Eq Ascorbic Acid] | toxicity on BJ cells ([3]; 48 h, result in words) | IC50 [3] [µM] | CUPRAC Eq Trolox [4] [Eq Trolox] | ferrous ion chelation percent ([5]; 0.25 µM) | ferrous ion chelation percent ([5]; 0.5 µM) | ferrous ion chelation percent ([5]; 1 µM) | ferrous ion chelation percent ([5]; 1.5 µM) | ferrous ion chelation percent ([5]; 2 µM) | FRAP Eq Trolox [6] [Eq Trolox] | RP Eq Ascorbic Acid [7] [Eq Ascorbic Acid] | RP Eq Trolox [7] [Eq Trolox] | IC50 [8] [µM] | IC50 [9] [µM] | Selectivity Index [9] | IC50 ([3]; Homo sapiens, Fibroblast) [µM] | IC50 ([9]; Homo sapiens, A549) [µM]
1 | O=C1O[C@H]([C@@H](O)CO)C(O)=C1O [Ascorbic acid, reference compound] | 53.5 |  |  |  |  |  |  |  |  |  |  |  |  |  |  |  |  | 
2 | Cc1nc(-c2ccc(O)c(O)c2)cs1 [Compound 3a] | 51.3 | 0.38 | no significant toxicity on BJ cells | > 100 | 3.17 | - | - | - | - | - | 0.95 | 1.73 | 1.44 | 12 | 31.5 | >3.17 |  | 
3 | Oc1ccc(-c2csc(-c3ccccc3)n2)cc1O [Compound 3b] | 50.2 | 1.00 |  | 78.6 | 2.27 | - | - | - | - | - | 1.07 | 1.60 | 1.33 | 14 | 8.91 | 8.82 |  | 
4 | Oc1ccc(-c2csc(-c3ccc(Cl)cc3)n2)cc1O [Compound 3c] | 47.8 | 0.83 |  | 35.8 | 2.38 | - | - | - | - | - | 1.10 | 1.47 | 1.22 | 15.7 | 8.16 | 4.39 |  | 
5 | Oc1ccc(-c2csc(-c3ccc(Br)cc3)n2)cc1O [Compound 3d, 4-(2-(4-bromophenyl)thiazol-4-yl)benzene-1,2-diol] | 48.3 | 0.71 |  |  | 2.62 | - | - | - | - | - | 1.09 | 1.63 | 1.35 | 12.6 |  | 5.66 | 34.4 | 6.08
6 | Cc1cccc(-c2nc(-c3ccc(O)c(O)c3)cs2)c1 [Compound 3e, 4-(2-(m-tolyl)thiazol-4-yl)benzene-1,2-diol] | 46.8 | 0.91 |  |  | 3.13 | - | - | - | - | - | 1.07 | 1.64 | 1.37 | 13.9 |  | 7.23 | 46.8 | 6.46
7 | COc1cc(-c2nc(-c3ccc(O)c(O)c3)cs2)cc(OC)c1OC [Compound 3f, 4-(2-(3,4,5-trimethoxyphenyl)thiazol-4-yl)benzene-1,2-diol] | 54.6 | 1.22 |  |  | 3.05 | - | - | - | - | - | 1.06 | 1.75 | 1.46 | 13.4 |  | 9.43 | 82.6 | 8.76
8 | O=C([O-])CN(CCN(CC(=O)[O-])CC(=O)O)CC(=O)O.[Na+].[Na+] [EDTA–Na2, EDTA-Na2, reference compound] |  |  |  |  |  | 47.21% | 55.24% | 73.41% | 86.52% | 96.20% |  |  |  |  |  |  |  | 
9 | Cc1c(C)c2c(c(C)c1O)CCC(C)(C(=O)O)O2 (stereo not drawn) [Trolox, reference compound] | 38.1 |  |  |  |  |  |  |  |  |  |  |  |  | 15.9 |  |  |  | 
